Laboratory results from PMC4449006, “Targeting KRAS Oncogene in Colon Cancer Cells with 7-Carboxylate Indolo[3,2-b]quinoline Tri-Alkylamine Derivatives” (PLoS ONE, 2015).

How the values were obtained:
HCT116 cells = test: MTS short-term cytotoxicity assay (72 h), HCT116; format: cell-based, human
Procedure: (§1) The short-term effect of compounds at 72 h on cell growth was studied using colorectal carcinoma cell lines with different KRAS and TP53 genotypes: human colorectal carcinoma HCT116 (mut Kras, wild-type (wt) p53), and human metastatic colorectal adenocarcinoma SW620 (mut Kras, mut p53). In parallel, we also used the immortalized human embryonic kidney cell line HEK293T (wt Kras, wt p53) and normal human colon fibroblast cells CCD18co (wt Kras, wt p53).
(§2) SW620 human colorectal adenocarcinoma cells (European Collection of Cell Cultures, ECACC, Porton Down, Wiltshire, UK), HEK293T human embryonic kidney cells (ATCC, LGC Standards, UK) HCT116 human colon carcinoma cells (ECACC), HCT116 p53(+/+) and p53(−/−) isogenic human colon cancer cells (GRCF Cell Center and Biorepository, the Johns Hopkins University, School of Medicine, Baltimore, MD, USA), were grown in Dulbecco’s modified Eagle’s medium (DMEM) supplemented with 10% fetal bovine serum, and 1% antibiotic/antimycotic (Invitrogen, Grand Island, NY, USA), CCD18co human colon fibroblasts (ATCC, CRL-1459) were grown in Minimum Essential Medium (MEM) supplemented with 10% fetal bovine serum, 1% antibiotic/antimycotic, 2 mM GlutaMAX, 0,1 mM Non-essential amino acids (NEAA) (Invitrogen) and […] Recombinant Human TNF-α (Peprotech, USA) and maintained at 37°C in a humidified atmosphere of 5% CO2.
(§3) Cell viability was evaluated by the tetrazolium dye (MTS) Short-Term Cytotoxicity Assay. […] Following 72 h of compound exposure, cell viability was evaluated using the CellTiter 96 AQueous Non-Radioactive Cell Proliferation Assay (Promega, Madison, WI, USA), using 3-(4,5-dimethylthiazol-2-yl)-5-(3-carboxymethoxyphenyl)-2-(4-sulfophenyl)-2H-tetrazolium, inner salt (MTS) as previously described [35]. Cell viability data were expressed as mean ±SD from at least three independent experiments. IC50 and IC65 values were determined using GaphPad Prism v.5.00 (GraphPad Software). In selected experiments, cell viability was also assessed by trypan blue exclusion assay, and general cell death by LDH activity from cell culture supernatants.

SW620 cells = test: MTS short-term cytotoxicity assay (72 h), SW620; format: cell-based; settings: 72 h, MTS, standard errors ≤ 0.1
Procedure: as §1, §2, §3

Compound: CCN(CC)CCOC(=O)c1ccc2c(c1)c1nc3ccccc3c(OCCN(CC)CC)c1n2CCN(CC)CC [1a]
- HCT116 IC65 (HCT116 cells; 72 h, MTS, standard errors ≤ 0.1): 3420 nM
- Selective index (SI) = IC50 CCD-18co / IC50 HCT116 (HCT116 cells; CCD18co vs HCT116): 2.46
- IC50 (HCT116 cells; Homo sapiens, HCT-116, 72 h, MTS, standard errors ≤ 0.1, read-out: HCT116 IC50): 1880 nM
- SW620 IC65 (SW620 cells): 4120 nM
- IC50 (SW620 cells; Homo sapiens, SW-620, read-out: SW620 IC50): 2690 nM
